Experimental data from ChEMBL document CHEMBL1131895, “Proteasome inhibition by the natural products epoxomicin and dihydroeponemycin: insights into specificity and potency” (Bioorg Med Chem Lett, 1999).

Key:
Type in all cases: functional
[1] = Antiproliferative activity of the compound
[2] = Inhibition of the trypsin-like activity
[3] = Inhibition of the chymotrypsin-like activity
[4] = Inhibition of the PGPH-like activity

Compound: CC(C)CCCCC(=O)NC(C(=O)NC(CC(C)C)C(=O)[C@@]1(CO)CO1)[C@@H](C)O (some centres not stated)
- IC50 [1]: 850 nM
- k obs / 1 [2]: 5 M⁻¹ s⁻¹
- k obs / 1 [3]: 22 M⁻¹ s⁻¹
- k obs / 1 [4]: 50 M⁻¹ s⁻¹

Compound: CC[C@H](C)[C@H](NC(=O)[C@H]([C@@H](C)CC)N(C)C(C)=O)C(=O)NC(CO)C(=O)NC(CC(C)C)C(=O)[C@@]1(CO)CO1 (single isomer, unassigned)
- IC50 [1]: 140 nM
- k obs / 1 [2]: 470 M⁻¹ s⁻¹
- k obs / 1 [3]: 17000 M⁻¹ s⁻¹
- k obs / 1 [4]: 35 M⁻¹ s⁻¹

Compound: CC(C)CCCCC(=O)NC(CO)C(=O)N[C@H](CC(C)C)C(=O)[C@@]1(CO)CO1 (some centres not stated)
- IC50 [1]: 100 nM
- k obs / 1 [2]: 17 M⁻¹ s⁻¹
- k obs / 1 [3]: 58 M⁻¹ s⁻¹
- k obs / 1 [4]: 175 M⁻¹ s⁻¹

Compound: CC[C@H](C)[C@H](NC(=O)[C@H]([C@@H](C)CC)N(C)C(C)=O)C(=O)NC(C(=O)NC(CC(C)C)C(=O)[C@@]1(C)CO1)[C@@H](C)O (single isomer, unassigned) [EPOXOMYCIN]
- IC50 [1]: 4 nM
- k obs / 1 [2]: 310 M⁻¹ s⁻¹
- k obs / 1 [3]: 20000 M⁻¹ s⁻¹
- k obs / 1 [4]: 43 M⁻¹ s⁻¹

Compound: CC(C)CCCCC(=O)NC(CO)C(=O)N[C@H](CC(C)C)C(=O)[C@@]1(C)CO1 (some centres not stated)
- IC50 [1]: 260 nM
- k obs / 1 [2]: 5 M⁻¹ s⁻¹
- k obs / 1 [3]: 34 M⁻¹ s⁻¹
- k obs / 1 [4]: 57 M⁻¹ s⁻¹

Compound: CC(C)CCCCC(=O)NC(C(=O)NC(CC(C)C)C(=O)[C@@]1(C)CO1)[C@@H](C)O (some centres not stated)
- IC50 [1]: 520 nM
- k obs / 1 [2]: 4 M⁻¹ s⁻¹
- k obs / 1 [3]: 25 M⁻¹ s⁻¹
- k obs / 1 [4]: 45 M⁻¹ s⁻¹

Compound: CC[C@H](C)[C@H](NC(=O)[C@H]([C@@H](C)CC)N(C)C(C)=O)C(=O)NC(C(=O)NC(CC(C)C)C(=O)[C@@]1(CO)CO1)[C@@H](C)O (single isomer, unassigned)
- IC50 [1]: 60 nM
- k obs / 1 [2]: 290 M⁻¹ s⁻¹
- k obs / 1 [3]: 18000 M⁻¹ s⁻¹
- k obs / 1 [4]: 37 M⁻¹ s⁻¹

Compound: CC[C@H](C)[C@H](NC(=O)[C@H]([C@@H](C)CC)N(C)C(C)=O)C(=O)NC(CO)C(=O)NC(CC(C)C)C(=O)[C@@]1(C)CO1 (single isomer, unassigned)
- IC50 [1]: 4 nM
- k obs / 1 [2]: 1100 M⁻¹ s⁻¹
- k obs / 1 [3]: 32000 M⁻¹ s⁻¹
- k obs / 1 [4]: 90 M⁻¹ s⁻¹
